From ChEMBL document CHEMBL1135794, “Looking for selectivity among cytochrome P450s inhibitors” (J Med Chem, 2002)

Tests used:
[1] = target: T1, Steroid 17-alpha-hydroxylase/17,20 lyase (Homo sapiens, UniProt P05093); experiment: Inhibition of Cytochrome P450 17
T1 sequence (P05093 whole entry): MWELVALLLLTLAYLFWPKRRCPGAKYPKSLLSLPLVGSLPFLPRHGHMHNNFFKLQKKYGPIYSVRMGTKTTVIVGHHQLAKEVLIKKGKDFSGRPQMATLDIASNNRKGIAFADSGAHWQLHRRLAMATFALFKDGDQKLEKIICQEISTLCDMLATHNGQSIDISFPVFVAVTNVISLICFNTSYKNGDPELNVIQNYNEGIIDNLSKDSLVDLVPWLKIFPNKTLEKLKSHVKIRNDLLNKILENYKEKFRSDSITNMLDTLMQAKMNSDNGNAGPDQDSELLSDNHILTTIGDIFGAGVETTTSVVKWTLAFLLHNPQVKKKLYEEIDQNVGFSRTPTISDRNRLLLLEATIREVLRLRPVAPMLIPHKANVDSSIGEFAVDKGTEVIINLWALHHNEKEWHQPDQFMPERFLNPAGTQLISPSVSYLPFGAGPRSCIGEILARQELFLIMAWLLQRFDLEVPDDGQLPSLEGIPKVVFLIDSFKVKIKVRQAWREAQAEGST

[2] = target: T1, Steroid 17-alpha-hydroxylase/17,20 lyase; experiment: Inhibition of Cytochrome P450 17; Inactive

| SMILES | Inhibition [1] [nM] | IA [2] |
| --- | --- | --- |
| O=c1c2ccccc2oc2c(Br)ccc(Cn3ccnc3)c12 | 42 |  |
| N#Cc1ccc(Cn2ccnc2)c2oc3ccccc3c(=O)c12 |  | Not Active |
